{"source": "patent US20100248372A1", "about": "“Composition and Method for Modulating Plant Transformation” (priority 2009, published 2010)", "key": {"[1]": {"test_system": "Arabidopsis thaliana", "experiment": "Homologous recombination (GUS reporter, histochemical staining) in plants grown on supplemented medium", "type": "in vivo", "conditions": "for effect on homologous recombination frequency: FIG. 3; for RR (recombination rate): 3-week-old plants; for increase in homologous recombination vs control MS medium: about 3 weeks", "from_the_text": "Homologous recombination was detected in plants, in particular Arabidopsis thaliana and tobacco plants, that were transformed with scorable reporter markers, for example, beta-glucuronidase (uidA or GUS). Upon homologous recombination, the marker gene is restored. Homologous recombination events were identified using histochemical staining. […] A recombination substrate generally consists of two non-functional overlapping copies of a GUS gene. Damage to one of the regions of homology may be repaired using the second copy as a template. A simple count of the number of recombination events in a population of plants was used to conduct quantitative analyses of beta-glucuronidase (GUS) activity. The homologous recombination frequency (HRF) was determined by relating the number of blue spots counted which are indicative of […] and then relating that number to the total number of plants scored. The recombination rate (RR) was determined by relating the HRF to the total number of haploid genomes present in the plant.\nThe total DNA of the transgenic lines was isolated from whole plants at preferably the full rosette stage using a Nucleon™ PhytoPure™ plant DNA extraction kit from Amersham Life Science. DNA may also be isolated from plants at a different development stage. The yield of total DNA measured in one of micrograms per plant or micrograms per plant organ was compared with the known mean DNA content, 0.16 pg of an A. thaliana cell, to give an approximate number of genomes present in plants (Swoboda et al., Mol. Gen. Genet., 1993, 237(1-2): 33-40). The total DNA was isolated from one of all leaves, roots, and stems of 4 plants per each experimental group for each transgenic line. The average DNA content from these samples was used to estimate the number of genomes present.\nTissues were prepared from A. thaliana plants that were germinated and grown for a period of 3 weeks on a medium containing 0, 25, 75, and 100 mM of NaCl. The recombination rate (RR) was calculated by scoring the HRF in separate groups of 3-week-old plants and then relating these numbers to the total number of genomes present in the plants. Each of the calculated values represents the mean value for the RR. […] The “Fold Increase” values shown in Table 1 were calculated by relating the data from plants grown on 25, 75 and 100 mM of NaCL to the data from plants grown in the absence of NaCl.\nPlants were germinated and grown on MS medium supplemented with one of 25 mM NaCl, 12.5 mM of Na2SO4, 12.5 mM of MgCl2, and 12.5 mM of MgSO4. Control plants were grown on standard MS medium. […] The data shown is the RR as an average of two independent experiments, each having 200 plants per experimental group.\nThe effects of KCl on plant transformation were measured using transgenic plants germinated from Arabidopsis line #11 obtained from Prof. Hohn, Friedrich Miescher Institute, Basel, Switzerland. Plants were germinated and grown on a solid or modified MS basal medium in presence of varying quantities of KCl. In order to establish KCl as the single source of potassium in all the modified media, KNO3, normally present in MS media was omitted. Additionally, potassium dihydrogenphosphate (KH2PO4) was replaced with ammonium dihydrogenphosphate (NH4▪H2PO4)."}, "[2]": {"test_system": "Arabidopsis", "description": "In order to assess the toxicity of Na^+ ions and K^+ ions on plant growth, plants were grown on an MS medium supplemented with one of 25, 50, 75 and 100 mM of either NaCl or KCl. The standard MS medium lacked KNO3."}, "[3]": {"test_system": "Nicotiana tabacum", "experiment": "Calli regeneration under hygromycin selection after Agrobacterium transformation of leaves", "type": "in vivo", "conditions": "for Calli regenerated and transplanted: died on soil / Calli regenerated and transplanted: total: 20 leaves transformed", "procedure": "Seeds of tobacco cultivar “Big Havana” were surface-sterilized with a solution containing 1% bleach and 0.05% Tween-80, for about 3 minutes and then rinsed twice with sterile distilled water for about 5 minutes. Surface-sterilized seeds were plated in 100 mm Petri dishes on sterile Whatman® filter paper submersed in 4 ml of liquid MS medium containing varying amounts of KCl and the plants were transferred to a growth chamber for germination. Once germinated, the plants were removed from the growth chamber and grown for a period of one week under conditions of 16-hours light, 22° C. and 8-hours dark, 18° C. Three to five one-week-old plants were then removed from the 4-ml liquid medium and were transferred to single sterile glass 250-ml flasks containing 15 ml of sterile liquid MS media supplemented with varying amounts of KCl. Flasks were then installed on shakers at 50-75 rpm. Plants were continuously grown under conditions of 16-hours light, 22° C. and 8-hours dark, 18° C. The growth medium in each flask was replaced weekly with 25 ml of fresh medium. Following a 3-week period, plants were removed from the flasks and 2 to 3 pairs of fully developed fresh leaves about 2-4 cm long were harvested (cut from the plant) for transformation with Agrobacteria.\nExperimental groups of tobacco plants were germinated and grown in a liquid medium culture supplemented with varying amounts of KCl. Control plants for the transformation experiments were grown in a standard MS-medium that was not supplemented with KCl.\nFour weeks post-germination, the tobacco plants were removed from the liquid medium culture. The leaves from the plants were removed, and several parallel incisions were made along the leaves. The leaves were then vacuum infiltrated with an Agrobacterium suspension culture carrying the plasmid with LUC (gene coding for luciferase) and hygromycin (gene coding for the resistance to hygromycin) genes.\nThe leaves were vacuum-infiltrated twice for about 5 minutes with the Agrobacterium suspension culture using standard procedures known in the art. Following vacuum-infiltration, the tobacco leaves were dried for about 5 to 10 minutes on sterile Whatman® filter paper to remove substantially all excess Agrobacterium cells. The leaves were then placed on plates containing MS medium, and each of the plates were placed for in a room for a period of 3 day at a temperature of 22° C. and exposed to a daily regime of 16-hours of light and 8-hours of dark.\nLeaves from each of the experimental groups grown on the different media compositions having varying amounts of KCL and the controls were washed with sterile water to remove the Agrobacterium suspension. To remove traces of growth medium, leaves were blotted on sterile filter paper and then submersed in a Petri dish laid out with Whatman® filter paper containing re-suspended Agrobacterium cells. Each submersed leaf surface was incised using a sharp surgical blade in parallel along the side veins. The distance between the two parallel incisions was about 5-7 mm. The primary leaf vein and leaf margins were left intact. Once cutting was complete, leaves remained submersed for a period of about 10 minutes. Leaves were then removed from the Petri dish and were blotted dry and placed upside-down on plates of MS medium, and were incubated in a dark room at 22° C. for a period of 3 days. […]\nAfter a period of about 3 to 4 weeks, the numbers of regenerated calli were determined. […]"}, "[4]": {"test_system": "Nicotiana tabacum", "experiment": "Stable T-DNA integration (LUC expression test of regenerated plantlets)", "type": "in vivo", "conditions": "for Calli regenerated and transplanted, LUC expression test: LUC negative / Calli regenerated and transplanted, LUC expression test: LUC positive: 20 leaves transformed", "from_the_text": "The number of transgenic plants, having incorporated a marker gene, regenerated from tobacco calli in various transformation experiments were counted. All the regenerated plants were screened using a luciferase camera. Spraying the transgenic plants with luciferine, the substrate for luciferase enzyme, allowed the identification of transgenic plants expressing the luciferase.\nThe newly appeared plantlets regenerated from the calli of Example 4 showing evidence of root formation, were excised from the calli and transferred to soil.\nPlantlets were sprayed with luciferine, and the total number of luciferase-positive plantlets was scored. This allowed the calculation of the transformation frequency, as the number of plants expressing LUC gene to the number of transformed leaves, shown in FIG. 7."}}, "note": "Like-named read-outs stand apart in the source and are kept apart here.", "data": [{"smiles": "[Cl-].[Cl-].[Mg+2]", "note": "[MgCl2]", "values": [{"measurement": "effect on homologous recombination frequency", "setting": "[1]; MS medium + 12.5 mM MgCl2, 21 days post-germination", "value": "significantly positive effects"}]}, {"smiles": "[Cl-].[Na+]", "note": "[NaCl]", "values": [{"measurement": "RR (recombination rate)", "setting": "[1]; 25 mM NaCl in medium", "value": "12.29 ± 0.18 10^−8"}, {"measurement": "Fold Increase of RR", "setting": "[1]; 25 mM NaCl vs plants grown in absence of NaCl", "value": 1.64}, {"measurement": "RR (recombination rate)", "setting": "[1]; 75 mM NaCl in medium", "value": "22.52 ± 0.34 10^−8"}, {"measurement": "Fold Increase of RR", "setting": "[1]; 75 mM NaCl vs plants grown in absence of NaCl", "value": 3}, {"measurement": "RR (recombination rate)", "setting": "[1]; 100 mM NaCl in medium", "value": "29.57 ± 0.82 10^−8"}, {"measurement": "Fold Increase of RR", "setting": "[1]; 100 mM NaCl vs plants grown in absence of NaCl", "value": 3.93}, {"measurement": "effect on homologous recombination frequency", "setting": "[1]; MS medium + 25 mM NaCl, 21 days post-germination", "value": "significantly positive effects"}, {"measurement": "increase in recombination frequency", "setting": "[1]; exposure to 25-100 mM NaCl", "value": "2-4 fold"}, {"measurement": "decrease in plant biomass", "setting": "[2]; 75 mM NaCl in MS medium", "value": "~20", "unit": "%"}, {"measurement": "decrease in plant biomass", "setting": "[2]; 100 mM NaCl in MS medium", "value": "~50", "unit": "%"}]}, {"smiles": "[Cl-].[K+]", "note": "[KCl, potassium chloride]", "values": [{"measurement": "Calli regenerated and transplanted: died on soil", "setting": "[3]; 47 mM KCl", "value": 0}, {"measurement": "Calli regenerated and transplanted: total", "setting": "[3]; 47 mM KCl", "value": 138}, {"measurement": "Calli regenerated and transplanted: died on soil", "setting": "[3]; 94 mM KCl", "value": 3}, {"measurement": "Calli regenerated and transplanted: total", "setting": "[3]; 94 mM KCl", "value": 181}, {"measurement": "increase in number of calli regenerated vs control medium", "setting": "[3]; media containing 47 and 94 mM KCl", "value": 5.9, "unit": "fold"}, {"measurement": "increase in homologous recombination vs control MS medium", "setting": "[1]; modified medium with 18.8 mM KCl", "value": 9.3, "unit": "fold"}, {"measurement": "increase in homologous recombination vs control MS medium", "setting": "[1]; modified medium with 47 mM KCl", "value": 15.4, "unit": "fold"}, {"measurement": "increase in homologous recombination vs control MS medium", "setting": "[1]; modified medium with 94 mM KCl", "value": 19.2, "unit": "fold"}, {"measurement": "effect on plant phenotype / plant biomass", "setting": "[2]; 100 mM KCl in MS medium", "value": "no decrease in plant biomass was observed"}, {"measurement": "Integration frequency, LUC positive plants/leaf transformed", "setting": "[4]; 47 mM KCl", "value": 5.3}, {"measurement": "difference in number of stable transformants vs control media", "setting": "[4]; 47 mM KCl", "value": 5.9, "unit": "fold"}, {"measurement": "Calli regenerated and transplanted, LUC expression test: LUC negative", "setting": "[4]; 47 mM KCl", "value": 32}, {"measurement": "Calli regenerated and transplanted, LUC expression test: LUC positive", "setting": "[4]; 47 mM KCl", "value": 106}, {"measurement": "Integration frequency, LUC positive plants/leaf transformed", "setting": "[4]; 94 mM KCl", "value": 7.2}, {"measurement": "difference in number of stable transformants vs control media", "setting": "[4]; 94 mM KCl", "value": 8.0, "unit": "fold"}, {"measurement": "Calli regenerated and transplanted, LUC expression test: LUC negative", "setting": "[4]; 94 mM KCl", "value": 41}, {"measurement": "Calli regenerated and transplanted, LUC expression test: LUC positive", "setting": "[4]; 94 mM KCl", "value": 144}]}]}
